Consider 16 compounds from ChEMBL document CHEMBL1148364, “Structure-based design, synthesis, and structure-activity relationship studies of novel non-nucleoside adenosine deaminase inhibitors” (J Med Chem, 2004).

One data set addresses T1, Adenosine deaminase (Homo sapiens, UniProt P00813).
T1 sequence (P00813 whole entry): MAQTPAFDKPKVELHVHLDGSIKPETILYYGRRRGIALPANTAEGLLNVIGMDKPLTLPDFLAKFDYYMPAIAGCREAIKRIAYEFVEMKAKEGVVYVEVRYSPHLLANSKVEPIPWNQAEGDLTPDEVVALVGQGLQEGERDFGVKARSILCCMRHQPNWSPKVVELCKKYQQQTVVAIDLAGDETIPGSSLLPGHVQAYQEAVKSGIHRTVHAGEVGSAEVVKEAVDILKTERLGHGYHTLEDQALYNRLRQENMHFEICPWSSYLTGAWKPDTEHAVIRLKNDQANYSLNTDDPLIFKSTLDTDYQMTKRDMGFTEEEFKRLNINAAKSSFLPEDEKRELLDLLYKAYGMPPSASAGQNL

Data set [1] can be described thus: AUC 0-8 hr value in rats at 10 mg/kg. The arrangement: time < 8 hr, dose 10 mg/kg. The data set is classed as ADME, organism-based. Conditions: rat, plasma.
A short description of data set [2]: Oral bioavailability in rats at 10 mg/kg. The class given is ADME, organism-based. Conditions: rat, in vivo.
Data set [3] in a line: Cmax value in rats at 10 mg/kg. The class given is ADME, organism-based. The arrangement: dose 10 mg/kg. Conditions: rat, in vivo.

SMILES strings stand for the structures.

The term Ki denotes the dissociation constant of the complex between target and ligand, obtained from inhibition or displacement. In general, AUC(0-t) refers to the area under the concentration-time curve up to a stated or last time point. Higher therefore signals more exposure. By bioavailability is commonly meant dose-corrected exposure relative to a reference, in per cent. Low values mean poor availability, high ones good availability. As usually defined, the Cmax is the peak of the concentration-time curve.

Description for Adenosine deaminase: Inhibition of human adenosine deaminase (ADA)

With `CCCCCCOc1ccc2c(ccn2CC[C@H](CO)n2cnc(C(N)=O)c2)c1`, the Ki at Adenosine deaminase stood at 6.2 µM.

As for `Cn1cc(CC[C@H](CO)n2cnc(C(N)=O)c2)c2cc(OCCCc3ccc(Cl)cc3)ccc21`, the AUC(0-t) at 8 h in data set [1] came out at 260 ng·h/mL. The compound further showed a bioavailability in data set [2] of 10%. Moreover, the highest level in data set [3] (Cmax) was 210 ng/mL. This compound also yielded a Ki on Adenosine deaminase of 0.0049 µM.

The compound `NC(=O)c1cn([C@@H](CO)CCn2ccc3ccc(OCCCc4ccc(Cl)cc4)cc32)cn1` returned a Ki on Adenosine deaminase of 0.013 µM.

On to `CCCCCCOc1ccc2c(c1)c(CC[C@H](CO)n1cnc(C(N)=O)c1)cn2C`, for which, on Adenosine deaminase, the affinity corresponds to a Ki of 0.013 µM.

At Adenosine deaminase, `NC(=O)c1cn([C@@H](CO)CCn2ccc3ccc(OCCCc4ccccc4)cc32)cn1` returned a Ki of 0.017 µM.

`NC(=O)c1cn([C@@H](CO)CCn2ccc3ccc(NC(=O)CCCCCc4ccccc4)cc32)cn1` displayed a Ki at Adenosine deaminase of 0.091 µM.

With `NC(=O)c1cn([C@@H](CO)CCn2ccc3cc(OCCCc4ccccc4)ccc32)cn1`, the Ki at Adenosine deaminase was found to be 1.9 µM.

`Cc1ccc(CCCC(=O)Nc2ccc3ccn(CC[C@H](CO)n4cnc(C(N)=O)c4)c3c2)cc1`: the Ki on Adenosine deaminase worked out at 0.034 µM.

`COc1ccc(CCC(=O)Nc2ccc3ccn(CC[C@H](CO)n4cnc(C(N)=O)c4)c3c2)cc1`: on Adenosine deaminase, the Ki was 0.057 µM.

On to `NC(=O)c1cn([C@@H](CO)CCn2ccc3ccc(NC(=O)CCc4cccnc4)cc32)cn1`, for which the Ki on Adenosine deaminase is 0.017 µM.

`CCCCOc1ccc2ccn(CC[C@H](CO)n3cnc(C(N)=O)c3)c2c1`: at Adenosine deaminase, affinity was put at a Ki of 0.24 µM.

At Adenosine deaminase, `CCCCCCOc1ccc2ccn(CC[C@H](CO)n3cnc(C(N)=O)c3)c2c1` displayed a Ki of 0.055 µM.

At Adenosine deaminase, `NC(=O)c1cn([C@@H](CO)CCn2ccc3ccc(OCCCCc4ccccc4)cc32)cn1` had a Ki of 0.012 µM.

On to `CC(=O)Nc1ccc2ccn(CC[C@H](CO)n3cnc(C(N)=O)c3)c2c1`, for which the affinity on Adenosine deaminase, expressed as Ki, was 1.3 µM.

Compound `CCCCCC(=O)Nc1ccc2ccn(CC[C@H](CO)n3cnc(C(N)=O)c3)c2c1` displayed a Ki on Adenosine deaminase of 0.024 µM.

Take `Cc1ccc(CCC(=O)Nc2ccc3ccn(CC[C@H](CO)n4cnc(C(N)=O)c4)c3c2)cc1`: the Ki at Adenosine deaminase worked out at 0.038 µM.
